Earlier results as cited in US20170014318A9, “Hair-growth-promoting solution containing chlorine dioxide, preparation methods and using methods thereof” (priority 2011, published 2017).

Experiments:
[1] = 276.5 mg/L aqueous solution
[2] = 276.5 mg/L aqueous solution; remark: listed apart in the source
skin and eye mucous = settings: solution containing 9.7 to 11.4 mg/L of chlorine dioxide

Molecule	oral LD50 (mice)	toxicity of aqueous solution [1]	accumulated toxicity [2]	48 hour skin and eye mucous irritating score (skin and eye mucous)
stable chlorine dioxide	> 10000 mg/kg	–	–	–
[O][Cl+][O-] [chlorine dioxide]	–	actually non-toxic	no significant accumulated toxicity	0
